Assay results published in a melting point compilation (Tetko et al.; mined from patent text by program, amines drawn as free bases though some values may be those of a salt).

Row | melting point [°C] | SMILES
1 | 157 to 162 | CCOC(=O)C1=C(C)NC(c2ncc[nH]2)=NC1c1ccc(F)cc1Cl (stereo not drawn)
2 | 123 to 125 | Cc1cccc(C)c1-c1cccc(C(N)=O)c1
3 | 284 to 286 | O=C(O)c1ccc2oc3c(c(=O)c2c1)CCCC3=Cc1ccccc1
4 | 90 | O=c1n(CC2CN(Cc3ccccc3)CCO2)c2ccccc2n1-c1ccccc1 (stereo not drawn)
5 | 120 to 122 | CCOc1cccc(-c2ccc(C3=CCN(S(=O)(=O)CC(=O)OC)CC3)cc2)c1
6 | 113 to 114 | O=C1CN2Cc3ccc(OCCCC(=O)N(CCO)CCCCC4CCCCC4)cc3N=C2N1
7 | 164 to 167 | CN(C)CC#Cc1ccc(C(CC2CCCC2)C(=O)Nc2nccs2)cc1 (stereo not drawn)
8 | 212 to 213 | Cc1nc(N2CCN(Cc3ccc(C(F)(F)F)cc3)C2=O)sc1-c1cc[nH]n1
9 | 245 to 247 | COC(C)C(=O)Nc1ccc(C2=NNC(=O)CC2)cc1 (stereo not drawn)
10 | 151 to 160 | CC1CC2C3CCC4=CC(=O)C=CC4(C)C3=CCC2(C)C1C(=O)COS(=O)(=O)c1ccc([N+](=O)[O-])cc1 (stereo not drawn)
11 | 118 to 119 | CSCc1nnnn1C1CCN(c2ccc(N3C[C@H](CNC(C)=O)OC3=O)cc2F)CC1
12 | 104 to 105 | Cn1c(=O)n(CCCC2(C)OCCO2)c(=O)c2c1ncn2Cc1ccccc1
13 | 51 to 53 | COC(=O)COc1ccc(C(C)=O)cc1C
14 | 147 to 149 | CC(C)Cn1c(CNC(=O)OC(C)(C)C)c(-c2cccc(F)c2)c2cc(C(N)=O)ccc2c1=O
15 | 165 to 166 | CCOC(=O)COc1ccc(C(=O)Nc2ccccc2Oc2cccc(-c3nnn[nH]3)c2)cc1
16 | 171 to 173 | CC(=O)Nc1c(C)ccc([N+](=O)[O-])c1C
17 | 204 to 207 | CCCn1nc2c(N)nc3ccccc3c2c1NCCC1CCN(S(C)(=O)=O)CC1
18 | 98 | C=CC(CC(O)C(CC1CCCCC1)NC(=O)C(Cc1c[nH]cn1)NC(=O)C(Cc1ccccc1)Cc1ccccc1)C(C)C (stereo not drawn)

Row | melting point [°C] | SMILES
19 | > 300 | O=C1Cc2cc([N+](=O)[O-])c(NC(=O)c3ccncc3)cc2N1
20 | 87 to 88 | CCCc1c(OCCCOc2ccc(C(=O)CO)c(OC)c2CCC)ccc2c1OC(C(=O)OC)CC2 (stereo not drawn)
21 | 33 to 35 | COC(=O)CCC1CCCCCCCCCCC1=O (stereo not drawn)
22 | 204 to 205 | O=C(Nc1cccnc1)N1CCc2ccc(Cl)cc21
23 | 157 to 161 | COc1ccc(C2=NN(CC(=O)Nc3cccc(-c4nnc(=O)sc4C)c3)C(=O)[C@H]3CC=CC[C@@H]23)cc1OC (relative stereo)
24 | 205 | C=CC(=O)Nc1n[nH]c2cc(Cl)ccc12
25 | 121 to 122 | CC(C)Oc1nccc(-c2c(-c3ccc(F)cc3)ncn2C2CCNCC2)n1
26 | 100 to 101 | O=C1c2ccccc2S(=O)(=O)N1CSc1nnc(SCCN2CCCCC2)s1
27 | 203 to 205 | CN(C)C1CCn2c1nc1cc(NC(=O)c3cc4cc(C(F)(F)F)ccc4n3Cc3cccc(F)c3)cnc12 (single isomer, unassigned; (-))
28 | 234 to 236 | COc1cc(C=C2SC(=S)N(c3ccc(O)cc3)C2=O)ccc1OC1OC(CO)C(O)C(O)C1NC(C)=O (stereo not drawn)
29 | 140 to 141 | COC(=O)[C@@H]1NC(=O)[C@@H]1NC(=O)COc1ccccc1 (relative stereo)
30 | 114 to 115 | Cc1ccc(CCCOc2c(C)cc(-c3nnn(C)n3)cc2C)nn1
31 | 212 to 214 | COc1cc(C(=O)N2Cc3ccccc3Cc3ccccc32)ccc1NC(=O)c1ccc(Cl)cc1Cl
32 | 88 | CN1CCc2cc(C=O)sc2C(c2ccccc2)C1 (stereo not drawn)
33 | 127 to 128 | CCCOC(=O)C1=C(C)NC(C)=C(C(=O)OC)C1c1ccccc1[N+](=O)[O-] (stereo not drawn)
34 | > 280 | CSc1nn2c(N)ncnc2c1S(=O)(=O)c1ccccc1
35 | 269 to 271 | CCOC(=O)C1=C2Nc3ccccc3N2CC1

Further lines, the compound ahead of its results:

Row | SMILES | melting point [°C]
36 | Cn1c(-c2ccc(Br)cc2)c(OCCOc2ccc(C=C3SC(=O)NC3=O)cc2)c(=O)c2ccccc21 | 151 to 154
37 | O=[N+]([O-])c1cccc2cc(-c3ccccc3)cnc12 | 112 to 114
38 | CCCCC(CC)COC(=O)C(C#N)=Cc1ccc(C(=O)O)cc1 (stereo not drawn) | 159 to 162
39 | CCOC(=O)c1ccc(CCC(=O)O)[nH]1 | 126 to 128
40 | CC1(C)CC(=C(c2ccc(O)cc2)c2ccc(CCCO)cc2)CC(C)(C)C1 | 160 to 161
41 | CN1CCN(c2cccc3ccc(NC(=O)C(F)(F)F)cc23)CC1 | 159 to 160
42 | CC(=O)SCC(CC(N)=O)C(=O)O (stereo not drawn) | 110 to 111
43 | Cn1ncc2c(=O)n3c(nc21)SCCC3 | 179 to 180
44 | CN(C)c1ccc(-c2[nH]c(-c3ccc([N+](=O)[O-])cc3)nc2C(=O)Nc2nccs2)cc1 | 250 to 251
45 | Cc1ccc(-c2c(C(=O)NCc3cc(C(F)(F)F)cc(C(F)(F)F)c3)n(C[C@H](C)CO)c(=O)c3ncccc23)cc1 | 123 to 125
46 | CCC1(CC)OC(c2ccc(S(C)(=O)=O)cc2)=C(c2cccc(Cl)c2)C1=O | 131 to 132
47 | Oc1ccccc1OCC(F)(F)F | 49 to 50
48 | CC(=O)OCN=C(O)c1cc(C(O)=NCOC(C)=O)c(C(=O)O)cc1C(=O)O | 237 to 238
49 | Cc1cc(-n2ncc(=O)[nH]c2=O)cc(Cl)c1Oc1ccc(O)c(S(=O)(=O)c2ccccc2)c1 | 78 to 81
50 | CC1(C=O)COC2(CCCCCCCCCCC2)OO1 (stereo not drawn) | 88 to 89
51 | Cc1cc(-c2ncn3c(C(F)(F)F)cc(-c4cccc(C(F)(F)F)c4)nc23)ccn1 | 234
52 | CC(C)(C)c1ccc(C(=O)Nc2cn3cc(-c4cn[nH]c4)ccc3n2)cc1 | 278 to 280

Row | SMILES | melting point [°C]
53 | O=C1N(Cc2ccc(=O)[nH]c2)c2ccccc2C12COc1cc3c(cc12)OCCO3 (stereo not drawn) | 249 to 250
54 | CCCOc1ccc2[nH]c(-c3cc(C)c(O)c(C)c3)c(C)c2c1 | 124
55 | COc1ccc(CNc2ccccc2C(=O)Nc2ccc(Cl)c(C(F)(F)F)c2)cn1 | 108 to 110
56 | Cc1[nH]c2ccc(F)cc2c1C(=O)Nc1ccc(Oc2ccccc2)c(C#N)c1 | 237
57 | CC(C)OC(=O)c1cc2c3ccccc3n(Cc3ccccc3)c2s1 | 88 to 89
58 | CCC1(c2cccc(OCc3ccccc3)c2)COC(C)(C)O1 (stereo not drawn) | 51 to 53
59 | CCCCOCCCn1c(CCCC)nc2cnc3cccnc3c21 | 56.5 to 57.5
60 | CC12CCC(=O)N1CC(=O)N2 (stereo not drawn) | 187 to 189
61 | COc1c(Cl)ccc(-c2nc(C(=O)OC(C)C)c(I)c(N)c2F)c1F | 134 to 135
62 | COc1ccc(CN2C(=O)C3CC(c4ccc([N+](=O)[O-])cc4)(C3)C2=O)cc1 | 146 to 147
63 | CCCCCCOc1c(OC)cc(N)c2nccc(C)c12 | 69 to 71
64 | CCCCCCCCN(CCCCCCCC)c1nc(Nc2ccc3nc(S)sc3c2)nc(N(CCCCCCCC)CCCCCCCC)n1 | 81 to 83
65 | CN(Cc1ccccc1)c1nc(=O)c2cc(C(F)(F)F)cc([N+](=O)[O-])c2s1 | 120 to 124
66 | NS(=O)(=O)c1cc(OC(F)F)ccc1OC(F)F | 73 to 74
67 | COP(=O)(OC)C(NC=O)P(=O)(OC)OC | 95
68 | CC(C)(C)c1cc(-c2coc3c(C(C)(C)C)cc(C(C)(C)C)cc23)c(O)c(C(C)(C)C)c1 | 236 to 238
